Values quoted from earlier work in paper PMC4257705 (Organic letters, 2009).

Target: αVβ3
Conditions: tripeptide sequence Arg-Gly-Asp (RGD)

## Arg-Gly-Asp [RGD]
  Kd: ~1 nM
